# Results: patent US6825172B2, “3-descladinosyl-6-O-carbamoyl and 6-O-carbonoyl macrolide antibacterial agents” (Janssen Pharmaceutica, NV, priority 2002, dated 2004)
# Read-outs that look alike come from different tables or passages of the source.
# Assays:
# Test in all cases: MIC, microdilution broth method (NCCLS)
# Type in all cases: cell-based
# [1] = system: E. coli OC2605; conditions: Escherichia coli
# Experimental: (§1) Minimal inhibitory concentration (MIC) has been an indicator of in vitro antibacterial activity widely used in the art. The in vitro antimicrobial activity of the compounds was determined by the microdilution broth method following the test method from the National Committee for Clinical Laboratory Standards (NCCLS). This method is described in the NCCLS Document M7-A4, Vol.17, No.2, “Methods for Dilution Antimicrobial Susceptibility Test for Bacteria that Grow Aerobically—Fourth Edition”, which is incorporated herein by reference.
# (§2) In this method two-fold serial dilutions of drug in cation adjusted Mueller-Hinton broth are added to wells in microdilution trays. The test organisms are prepared by adjusting the turbidity of actively growing broth cultures so that the final concentration of test organism after it is added to the wells is approximately 5×10^4 CFU/well.
# (§3) Following inoculation of the microdilution trays, the trays are incubated at 35 °C for 16-20 hours and then read. […] The amount of growth in the wells containing the test compound is compared with the amount of growth in the growth-control wells (no test compound) used in each tray. As set forth in Table 1, compounds of the present invention were tested against a variety of Gram positive and Gram negative pathogenic bacteria resulting in a range of activities depending on the organism tested.
# [2] = system: H. influenzae ATCC49247; conditions: Haemophilus influenzae, read-out: MIC Values, E: H. influenzae ATCC49247
# Experimental: as §1, §2, §3
# [3] = system: S. aureus ATCC29213; conditions: Staphylococcus aureus, read-out: MIC Values, B: S. aureus ATCC29213
# Experimental: as §1, §2, §3
# [4] = system: S. pneumoniae ATCC49619; conditions: Streptococcus pneumoniae, read-out: MIC Values, D: S. pneumoniae ATCC49619
# Experimental: as §1, §2, §3
# [5] = system: E. faecalis ATCC29212; conditions: Enterococcus faecalis, read-out: MIC Values, C: E. faecalis ATCC29212
# Experimental: as §1, §2, §3
# [6] = Table 1, 6-Carbamoyl-3-Acyl Macrolide Derivatives, read-out: MIC Values, A: E. coli OC2605
# [7] = Table 1, 6-Carbamoyl-3-Acyl Macrolide Derivatives
# [8] = Table 2, 3,6-Dicarbamoyl Macrolide Derivatives, read-out: MIC Values, A: E. coil OC2605
# [9] = Table 2, 3,6-Dicarbamoyl Macrolide Derivatives
"MIC [1, 6] [µg/mL]","MIC [2, 7] [µg/mL]","MIC [3, 7] [µg/mL]","MIC [4, 7] [µg/mL]","MIC [5, 7] [µg/mL]","MIC [1, 8] [µg/mL]","MIC [2, 9] [µg/mL]","MIC [3, 9] [µg/mL]","MIC [4, 9] [µg/mL]","MIC [5, 9] [µg/mL]",Structure (SMILES)
16,8,1,0.12,1,–,–,–,–,–,CC[C@H]1OC(=O)[C@H](C)[C@@H](OC(=O)/C(=N/OC)c2cccnc2)[C@H](C)[C@@H](O[C@@H]2O[C@H](C)C[C@H](N(C)C)[C@H]2O)[C@](C)(OC(=O)NC/C=C/c2ccc(-c3ncccn3)cc2)C[C@@H](C)C(=O)[C@H](C)[C@H]2NC(=O)O[C@@]21C [Compound 43]
–,–,–,–,–,> 16,2,0.25,0.03,0.25,CC[C@H]1OC(=O)[C@H](C)[C@@H](OC(=O)N(C)Cc2cccnc2)[C@H](C)[C@@H](O[C@@H]2O[C@H](C)C[C@H](N(C)C)[C@H]2O)[C@](C)(OC(=O)NC/C=C/c2ccc(-c3ncccn3)cc2)C[C@@H](C)C(=O)[C@H](C)[C@H]2NC(=O)O[C@@]21C [Compound 58]
16,1,0.5,–,0.25,–,–,–,–,–,CC[C@H]1OC(=O)[C@H](C)[C@@H](OC(=O)Cc2ccccn2)[C@H](C)[C@@H](O[C@@H]2O[C@H](C)C[C@H](N(C)C)[C@H]2O)[C@](C)(OC(=O)NC/C=C/c2ccc(-c3ncccn3)cc2)C[C@@H](C)C(=O)[C@H](C)[C@H]2NC(=O)O[C@@]21C [Compound 2]
16,1,1,0.06,0.25,–,–,–,–,–,CC[C@H]1OC(=O)[C@H](C)[C@@H](OC(=O)Cc2cccnc2)[C@H](C)[C@@H](O[C@@H]2O[C@H](C)C[C@H](N(C)C)[C@H]2O)[C@](C)(OC(=O)NC/C=C/c2cccnc2)C[C@@H](C)C(=O)[C@H](C)[C@H]2NC(=O)O[C@@]21C [Compound 19]
> 16,4,1,0.12,0.5,–,–,–,–,–,CC[C@H]1OC(=O)[C@H](C)[C@@H](OC(=O)Cc2cccnc2)[C@H](C)[C@@H](O[C@@H]2O[C@H](C)C[C@H](N(C)C)[C@H]2O)[C@](C)(OC(=O)NC/C=C/c2cnc(C(C)C)nc2)C[C@@H](C)C(=O)[C@H](C)[C@H]2NC(=O)O[C@@]21C [Compound 41]
16,2,0.5,0.03,0.25,–,–,–,–,–,CC[C@H]1OC(=O)[C@H](C)[C@@H](OC(=O)Cc2ccccn2)[C@H](C)[C@@H](O[C@@H]2O[C@H](C)C[C@H](N(C)C)[C@H]2O)[C@](C)(OC(=O)NC/C=C/c2ccc(C#N)nc2)C[C@@H](C)C(=O)[C@H](C)[C@H]2NC(=O)O[C@@]21C [Compound 29]
–,–,–,–,–,> 16,> 16,2,0.25,1,CC[C@H]1OC(=O)[C@H](C)[C@@H](OC(=O)Nc2ccc3ccccc3c2)[C@H](C)[C@@H](O[C@@H]2O[C@H](C)C[C@H](N(C)C)[C@H]2O)[C@](C)(OC(=O)NC/C=C/c2ccc(-c3ncccn3)cc2)C[C@@H](C)C(=O)[C@H](C)[C@H]2NC(=O)O[C@@]21C [Compound 53]
8,4,0.5,0.03,0.25,–,–,–,–,–,"CC[C@H]1OC(=O)[C@H](C)[C@@H](OC(=O)C(C)C)[C@H](C)[C@@H](O[C@@H]2O[C@H](C)C[C@H](N(C)C)[C@H]2O)[C@](C)(OC(=O)NC/C=C/c2cnc3ccccc3c2)C[C@@H](C)C(=O)[C@H](C)[C@H]2NC(=O)O[C@@]21C [Compound 31, Propanoic acid, 2-methyl-, (3aS,4R,7R,8S,9S,10R,11R,13R,15R,15aR)-4-ethyltetradecahydro-3a,7,9,11,13,15-hexamethyl-2,6,14-trioxo-11-[[[[(2E)-3-(3-quinolinyl)-2-propenyl]amino]carbonyl]oxy]-10-[[3,4,6-trideoxy-3-(dimethylamino)-β-D-xylo-hexopyranosyl]oxy]-2H-oxacyclotetradecino[4,3-d]oxazol-8-yl ester]"
16,2,1,0.06,0.5,–,–,–,–,–,CC[C@H]1OC(=O)[C@H](C)[C@@H](OC(=O)Cc2cccnc2)[C@H](C)[C@@H](O[C@@H]2O[C@H](C)C[C@H](N(C)C)[C@H]2O)[C@](C)(OC(=O)NC/C=C/c2cnc(C3CC3)nc2)C[C@@H](C)C(=O)[C@H](C)[C@H]2NC(=O)O[C@@]21C [Compound 39]
